Literature values as cited in US11298425B2, “Delivery of a chemotherapy agent across the blood-brain barrier” (ROWLESBIOMED, LLC, priority 2018, dated 2022).
Like-named read-outs stand apart in the source and are kept apart here.

Tests used:
[1] = mice
[2] = rats
[3] = pigs
[4] = humans, measured in the tissues of human cadavers

SMILES | brain-to-blood ratio [1] | brain-to-blood ratio [2] | brain-to-blood ratio [3] | brain-to-blood ratio [4]
CCCc1cc(O)c2c(c1)OC(C)(C)[C@@H]1CCC(C)=C[C@@H]21 [THCV, tetrahydrocannabivarin] | even higher than THC |  |  | 
CCCCCc1cc(O)c2c(c1)OC(C)(C)[C@@H]1CCC(C)=C[C@@H]21 [THC, tetrahydrocannabinol] | 1.6 | 2.0 | 2.6 | 3.0
